Values quoted from earlier work, collected in PubChem BioAssay AID1259409 (Chemical Carcinogenesis Research Information System (CCRIS), 2018).

Tested on: rodent chemically induced tumor inhibition, incidence and multiplicity
Assay: CCRIS tumor inhibitor studies

Row | Structure (SMILES) | tumour outcome (control, treated, inhibition, significance) (Carcinogen: 1,2-DIMETHYLHYDRAZINE, 540-73-8, Dose [Inhibitor]: 0, 600 MG/L IN DRINKING WATER FOR DURATION OF STUDY BEGINNING 7 D PRIOR TO CARCINOGEN TREATMENT (STUDY DURATION: 8 MO), Route [Inhibitor]: ORAL, Species: RAT, Strain/Sex: BD6/MALE, Target Tissue: Type of Lesion: INTESTINE: TUMOR, Dose [Carcinogen]: 20 MG/KG BW 1/WK FOR 20 WK, Promoter: NONE USED) | tumour outcome (control, treated, inhibition, significance) (Carcinogen: 4-(METHYLNITROSAMINO)-1-(3-PYRIDLY)-1-BUTANONE [64091-91-4], Dose [Inhibitor]: 2.5 MG/KG BW 3X/WK FOR 31 WK BEGINNING 1 WK POST LAST CARCINOGEN DOSE (STUDY DURATION: 52 WK), Route [Inhibitor]: SUBCUTANEOUS, Species: HAMSTER, Strain/Sex: SYRIAN/MALE, Target Tissue: Type of Lesion: LUNG: TUMOR, Dose [Carcinogen]: 10 MG/KG BW 3X/WK FOR 20 WK (STUDY DURATION: 52 WK), Promoter: NONE) | tumour outcome (control, treated, inhibition, significance) (Carcinogen: 4-(METHYLNITROSAMINO)-1-(3-PYRIDLY)-1-BUTANONE [64091-91-4], Dose [Inhibitor]: 2.5 MG/KG BW 3X/WK FOR 31 WK BEGINNING 1 WK POST LAST CARCINOGEN DOSE (STUDY DURATION: 52 WK), Route [Inhibitor]: SUBCUTANEOUS, Species: HAMSTER, Strain/Sex: SYRIAN/MALE, Target Tissue: Type of Lesion: NASAL CAVITY: TUMOR, Dose [Carcinogen]: 10 MG/KG BW 3X/WK FOR 20 WK (STUDY DURATION: 52 WK), Promoter: NONE) | tumour outcome (control, treated, inhibition, significance) (Carcinogen: DIETHYLNITROSAMINE, 55-18-5, Dose [Inhibitor]: 0, 600 MG/L IN DRINKING WATER BEGINNING 3 D PRIOR TO FIRST CARCINOGEN DOSE AND CONTINUING TO 14 D POST LAST CARCINOGEN D, Route [Inhibitor]: ORAL, Species: RAT, Strain/Sex: BD6/FEMALE, Target Tissue: Type of Lesion: ESOPHAGUS: TUMOR, Dose [Carcinogen]: 80 MG/KG BW 1/WK FOR 8 WK, Promoter: NONE USED) | tumour outcome (control, treated, inhibition, significance) (Carcinogen: DIETHYLNITROSAMINE, 55-18-5, Dose [Inhibitor]: 0, 600 MG/L IN DRINKING WATER BEGINNING 3 D PRIOR TO FIRST CARCINOGEN DOSE AND CONTINUING TO 14 D POST LAST CARCINOGEN D, Route [Inhibitor]: ORAL, Species: RAT, Strain/Sex: BD6/FEMALE, Target Tissue: Type of Lesion: LIVER: TUMOR, Dose [Carcinogen]: 80 MG/KG BW 1/WK FOR 8 WK, Promoter: NONE USED) | tumour outcome (control, treated, inhibition, significance) (Carcinogen: DIETHYLNITROSAMINE, 55-18-5, Dose [Inhibitor]: 0, 600 MG/L IN DRINKING WATER FOR DURATION OF STUDY BEGINNING 4 D POST CARCINOGEN TREATMENT (STUDY DURATION: 6 MO), Route [Inhibitor]: ORAL, Species: RAT, Strain/Sex: BD6/FEMALE, Target Tissue: Type of Lesion: ESOPHAGUS: TUMOR, Dose [Carcinogen]: 80 MG/KG BW 1/WK FOR 8 WK, Promoter: NONE USED) | tumour outcome (control, treated, inhibition, significance) (Carcinogen: DIETHYLNITROSAMINE, 55-18-5, Dose [Inhibitor]: 0, 600 MG/L IN DRINKING WATER FOR DURATION OF STUDY BEGINNING 4 D POST CARCINOGEN TREATMENT (STUDY DURATION: 6 MO), Route [Inhibitor]: ORAL, Species: RAT, Strain/Sex: BD6/FEMALE, Target Tissue: Type of Lesion: LIVER: TUMOR, Dose [Carcinogen]: 80 MG/KG BW 1/WK FOR 8 WK, Promoter: NONE USED) | tumour outcome (control, treated, inhibition, significance) (Carcinogen: DIETHYLNITROSAMINE, 55-18-5, Dose [Inhibitor]: 0, 600 MG/L IN DRINKING WATER FOR DURATION OF STUDY BEGINNING 7 D PRIOR TO CARCINOGEN TREATMENT (STUDY DURATION: 6 MO), Route [Inhibitor]: ORAL, Species: RAT, Strain/Sex: BD6/FEMALE, Target Tissue: Type of Lesion: ESOPHAGUS: TUMOR, Dose [Carcinogen]: 80 MG/KG BW 1/WK FOR 8 WK, Promoter: NONE USED) | tumour outcome (control, treated, inhibition, significance) (Carcinogen: DIETHYLNITROSAMINE, 55-18-5, Dose [Inhibitor]: 0, 600 MG/L IN DRINKING WATER FOR DURATION OF STUDY BEGINNING 7 D PRIOR TO CARCINOGEN TREATMENT (STUDY DURATION: 6 MO), Route [Inhibitor]: ORAL, Species: RAT, Strain/Sex: BD6/FEMALE, Target Tissue: Type of Lesion: LIVER: TUMOR, Dose [Carcinogen]: 80 MG/KG BW 1/WK FOR 8 WK, Promoter: NONE USED) | tumour outcome (control, treated, inhibition, significance) (Carcinogen: N-ETHYL-N-NITROSOUREA, 759-73-9, Dose [Inhibitor]: 0, 1000 MG/KG IN DIET FOR 12 MO ADMINISTERED TO OFFSPRING OF CARCINOGEN-TREATED MOTHERS (STUDY DURATION: 12 MO), Route [Inhibitor]: ORAL, Species: RAT, Strain/Sex: ALBINO/MALE, FEMALE, Target Tissue: Type of Lesion: BRAIN: TUMOR, Dose [Carcinogen]: 75 MG/KG BW ADMINISTERED INTRAPERITONEALLY TO MOTHERS 21 D POST CONCEPTION, Promoter: NONE USED) | tumour outcome (control, treated, inhibition, significance) (Carcinogen: N-ETHYL-N-NITROSOUREA, 759-73-9, Dose [Inhibitor]: 0, 1000 MG/KG IN DIET FOR 12 MO ADMINISTERED TO OFFSPRING OF CARCINOGEN-TREATED MOTHERS (STUDY DURATION: 12 MO), Route [Inhibitor]: ORAL, Species: RAT, Strain/Sex: ALBINO/MALE, FEMALE, Target Tissue: Type of Lesion: KIDNEY: TUMOR, Dose [Carcinogen]: 75 MG/KG BW ADMINISTERED INTRAPERITONEALLY TO MOTHERS 21 D POST CONCEPTION, Promoter: NONE USED) | tumour outcome (control, treated, inhibition, significance) (Carcinogen: N-ETHYL-N-NITROSOUREA, 759-73-9, Dose [Inhibitor]: 0, 1000 MG/KG IN DIET FOR 12 MO ADMINISTERED TO OFFSPRING OF CARCINOGEN-TREATED MOTHERS (STUDY DURATION: 12 MO), Route [Inhibitor]: ORAL, Species: RAT, Strain/Sex: ALBINO/MALE, FEMALE, Target Tissue: Type of Lesion: PERIPHERAL NERVES: TUMOR, Dose [Carcinogen]: 75 MG/KG BW ADMINISTERED INTRAPERITONEALLY TO MOTHERS 21 D POST CONCEPTION, Promoter: NONE USED) | tumour outcome (control, treated, inhibition, significance) (Carcinogen: N-ETHYL-N-NITROSOUREA, 759-73-9, Dose [Inhibitor]: 0, 1000 MG/KG IN DIET FOR 12 MO ADMINISTERED TO OFFSPRING OF CARCINOGEN-TREATED MOTHERS (STUDY DURATION: 12 MO), Route [Inhibitor]: ORAL, Species: RAT, Strain/Sex: ALBINO/MALE, FEMALE, Target Tissue: Type of Lesion: SPINAL CHORD: TUMOR, Dose [Carcinogen]: 75 MG/KG BW ADMINISTERED INTRAPERITONEALLY TO MOTHERS 21 D POST CONCEPTION, Promoter: NONE USED) | tumour outcome (control, treated, inhibition, significance) (Carcinogen: URETHANE, 51-79-6, Dose [Inhibitor]: 0.05 UMOL/G BW GIVEN AT 6 HR INTERVALS DURING PERIOD OF 0 TO 36 HR AFTER CARCINOGEN TREATMENT FOLLOWED BY 5 MO OBSERVATI, Route [Inhibitor]: INTRAPERITONEAL, Species: MOUSE, Strain/Sex: ICR/FEMALE, Target Tissue: Type of Lesion: LUNG: PAPILLARY ADENOMA, Dose [Carcinogen]: 0.1 MG/G BW ONCE, Promoter: NONE USED) | tumour outcome (control, treated, inhibition, significance) (Carcinogen: BENZO[A]PYRENE, 50-32-8, Dose [Inhibitor]: 0, 25 PPM IN DIET BEGINNING POST CARCINOGEN TREATMENT AND CONTINUING FOR DURATION OF STUDY (STUDY DURATION: 148 D), Route [Inhibitor]: ORAL, Species: MOUSE, Strain/Sex: ICR/FEMALE, Target Tissue: Type of Lesion: FORESTOMACH: TUMOR, Dose [Carcinogen]: 1.5 MG IN 0.2 ML CORN OIL 1/WK FOR 4 WK, Promoter: NONE USED) | tumour outcome (control, treated, inhibition, significance) (Carcinogen: BENZO[A]PYRENE, 50-32-8, Dose [Inhibitor]: 0, 50 PPM IN DIET BEGINNING POST CARCINOGEN TREATMENT AND CONTINUING FOR DURATION OF STUDY (STUDY DURATION: 148 D), Route [Inhibitor]: ORAL, Species: MOUSE, Strain/Sex: ICR/FEMALE, Target Tissue: Type of Lesion: FORESTOMACH: TUMOR, Dose [Carcinogen]: 1.5 MG IN 0.2 ML CORN OIL 1/WK FOR 4 WK, Promoter: NONE USED) | tumour outcome (control, treated, inhibition, significance) (Carcinogen: BENZO[A]PYRENE, 50-32-8, Dose [Inhibitor]: 0, 75 PPM IN DIET BEGINNING POST CARCINOGEN TREATMENT AND CONTINUING FOR DURATION OF STUDY (STUDY DURATION: 148 D), Route [Inhibitor]: ORAL, Species: MOUSE, Strain/Sex: ICR/FEMALE, Target Tissue: Type of Lesion: FORESTOMACH: TUMOR, Dose [Carcinogen]: 1.5 MG IN 0.2 ML CORN OIL 1/WK FOR 4 WK, Promoter: NONE USED)
1 | Cn1c(=O)c2[nH]cnc2n(C)c1=O | 100%, 100%, 0%, not significant | 12/15 (80.0%), 15/15 (100.0%), -25%, not calculated | 4/15 (26.7%), 4/15 (26.7%), 0%, not calculated | 15%, 9%, 40%, not significant | 90%, 97%, -8%, not significant | 15%, 29%, -93%, not significant | 90%, 97%, -8%, not significant | 14%, 17%, -21%, not significant | 100%, 90%, 10%, not significant | 53/63 (84%), 21/41 (51%), 39%, p<0.05 | 23/63 (37%), 6/41 (15%), 59%, p<0.05 | 24/63 (38%), 5/41 (12%), 68%, p<0.05 | 17/63 (27%), 9/41 (22%), 19%, not significant | 31/59 (53%), 25/43 (58%), -9%, not significant |  |  | 
2 | CCC1OC(C)=C(O)C1=O (configuration not stated) |  |  |  |  |  |  |  |  |  |  |  |  |  |  | 100%, 76%, 24%, not calculated | 100%, 54%, 46%, not calculated | 100%, 75%, 25%, not calculated
